Test [1] deals with T1, GLUT-3 (Homo sapiens, UniProt P11169).
T1 construct: gene SLC2A3
The test is described as follows: CETSA/thermal proteome profiling in SW480 lysate (ΔTm […] °C by MS, […] °C by immunoblot, […]); 2DG uptake IC50 in DLD-1 GLUT1(-/-) cells; shift on GLUT-3 overexpression in CHO. In kind it is cell-based. Background: A western blot detects proteins with antibodies after separation by electrophoresis.

The subject of test [2] is C33A. The test is described as follows: cells. More on the design: Cell growth inhibition, sulforhodamine B total protein staining. Conditions: Homo sapiens, C-33-A; 72 h growth; read-out: Cell growth inhibition IC50/µM. How it is done: (§1) Cell panel profiling A panel of 94 cell lines was exposed to Glupin for 72 h to assess the influence on cell growth (Oncolead, Germany). Cell growth was determined using sulforhodamine B assay. Measurements were performed using a total protein staining protocol. Briefly, after treatement cells were fixed addition of 10% TCA (for adherent growing cells) or 50% TCA (for semi-adherent growing cells or cells growing in suspension). After an incubation at 4°C for 1 h, plates were washed twice with 400 μl of deionized water and dried. Cells were then stained with 100 μl of 0.04% wt/v sulforhodamine B. Plates were incubated at room temperature for at least 30 min and washed six times with 1% acetic acid to remove unbound stain. […] This effect was much stronger at a physiological glucose concentration (5 mM; Figure 5 b,c). […] IC50 values lower than 300 nM were obtained for more than 20 cell lines, whereas 24 cell lines were not affected by the compound, among them the peripheral blood mononuclear control cells (PBMCs). Sensitivity to Glupin was detected across various tissue types (Table S6).

The subject of test [3] is CASKI. The test is described as follows: cells. More on the design: Cell growth inhibition, sulforhodamine B total protein staining. The settings on record: Homo sapiens, Ca-Ski; 72 h growth; read-out: Cell growth inhibition IC50/µM. How it is done:
as §1

Test [4] deals with MG63. The experiment in a line: cells. Conditions: Homo sapiens, MG-63; 72 h growth; read-out: Cell growth inhibition IC50/µM. More on the design: Cell growth inhibition, sulforhodamine B total protein staining. How it is done: as §1
Test [5] deals with SKHEP1. The experiment in a line: cells. More on the design: Cell growth inhibition, sulforhodamine B total protein staining. Conditions: Homo sapiens, SK-HEP1; 72 h growth; read-out: Cell growth inhibition IC50/µM. How it is done:
as §1

In test [6] the test system is T24. The test is described as follows: cells. More on the design: Cell growth inhibition, sulforhodamine B total protein staining. Conditions: Homo sapiens, T-24; 72 h growth; read-out: Cell growth inhibition IC50/µM. How it is done:
as §1

Test [7] relates to CHO. The test is described as follows: cells. More on the design: 2-deoxyglucose uptake inhibition, resazurin/diaphorase, mock-transfected CHO cells. The settings on record: Cricetulus griseus, 0.5 h, empty vector. How it is done:
Resazurin-based 2DG uptake assay (low throughput) The 2DG uptake assay was performed by the Yamamoto et al. procedure.[6] 40000 cells/well were seeded in black CellBIND 96-well plates with clear bottom (Corning) and allowed to attach overnight. Cells were washed three times with KRB buffer (20 mM Hepes, 5 mM KH2PO4, 1 mM MgCl2, 1 mM CaCl2, 136 mM NaCl, 4.7 mM KCl, pH 7.4) containing 0.1% BSA and then incubated with the compounds or vehicle control and 1 mM 2DG for 30 min as described earlier. After washing three times with KRB buffer, the plates were sealed with adhesive aluminum foil and cells were lysed with 60 µL 1% CHAPS in 0.06 M HCl. Subsequently, plates were heated using microplate heater for 15 min at 65°C. After cooling down to room temperature, 20 µL 0.5 M Tris were added to neutralize the acid, before 80 µL of detection enzyme mixture were added. The detection enzyme solution contained 25 µM resazurin sodium salt (Acros), 6 U/mL glucose-6-phosphate dehydrogenase (G8404; Sigma Aldrich), 0.2 U/mL diaphorase from Chlostridium kluyveri (D5540; Sigma Aldrich) and 0.1mM NADP+ (Applichem) in 0.125 mM Tris, pH 8.4 with 0.1% BSA. After incubation for 2 h at room temperature, fluorescence intensity was measured at ex/em 530/590 nm using a Tecan M200 plate reader. Data were normalized to the respective DMSO Transient overexpression of GLUT-1-4 in CHO cells and 2DG assay[7] […]

The test system of test [8] is T2, CHO.
T2 construct: transiently transfected with plasmid
The experiment in a line: cells. The settings on record: Cricetulus griseus, 0.5 h. More on the design: 2DG uptake in transfected CHO cells, resazurin/diaphorase fluorescence. How it is done: Transient overexpression of GLUT-1-4 in CHO cells and 2DG assay[7] 1x10^6 CHO cells were seeded 10 cm cell culture plates. After overnight incubation, cells were transfected with the different using Lipofectamine 3000 according to the supplier's instructions. Briefly, DNA-lipid SUPPORTING INFORMATION 264 complexes (100 µg plasmid DNA, DNA:lipid ratio 1:2) were prepared in OptiMEM and then added to the cells. In the case of GLUT-4-transfected cells, Insulin (100 µg/mL) was added to the transfection medium. After incubation for 48 h cells were either reseeded (40,000 cell/well) in 96-well plates for monitoring glucose uptake or cells were directly lysed and protein expression was subsequently analysed by means of immunoblotting. In the case of GLUT-4 transfected cells, Insulin (100 µg/mL) was added to the culture medium medium. The 2DG assay was performed as described above (low throughput resazurin-based assay). In the case of GLUT-4 transfected cells, Insulin (100 µg/mL) was added to the buffer. Resazurin-based 2DG uptake assay (low throughput) The 2DG uptake assay was performed by the Yamamoto et al. procedure.[6] 40000 cells/well were seeded in black CellBIND 96-well plates with clear bottom (Corning) and allowed to attach overnight. Cells were washed three times with KRB buffer (20 mM Hepes, 5 mM KH2PO4, 1 mM MgCl2, 1 mM CaCl2, 136 mM NaCl, 4.7 mM KCl, pH 7.4) containing 0.1% BSA and then incubated with the compounds or vehicle control and 1 mM 2DG for 30 min as described earlier. After washing three times with KRB buffer, the plates were sealed with adhesive aluminum foil and cells were lysed with 60 µL 1% CHAPS in 0.06 M HCl. Subsequently, plates were heated using microplate heater for 15 min at 65°C. After cooling down to room temperature, 20 µL 0.5 M Tris were added to neutralize the acid, before 80 µL of detection enzyme mixture were added. The detection enzyme solution contained 25 µM resazurin sodium salt (Acros), 6 U/mL glucose-6-phosphate dehydrogenase (G8404; Sigma Aldrich), 0.2 U/mL diaphorase from Chlostridium kluyveri (D5540; Sigma Aldrich) and 0.1mM NADP+ (Applichem) in 0.125 mM Tris, pH 8.4 with 0.1% BSA. After incubation for 2 h at room temperature, fluorescence intensity was measured at ex/em 530/590 nm using a Tecan M200 plate reader. Data were normalized to the respective DMSO

The structures appear in SMILES notation. Bounds are passed on as bounds.

T1 sequence (P11169 whole entry): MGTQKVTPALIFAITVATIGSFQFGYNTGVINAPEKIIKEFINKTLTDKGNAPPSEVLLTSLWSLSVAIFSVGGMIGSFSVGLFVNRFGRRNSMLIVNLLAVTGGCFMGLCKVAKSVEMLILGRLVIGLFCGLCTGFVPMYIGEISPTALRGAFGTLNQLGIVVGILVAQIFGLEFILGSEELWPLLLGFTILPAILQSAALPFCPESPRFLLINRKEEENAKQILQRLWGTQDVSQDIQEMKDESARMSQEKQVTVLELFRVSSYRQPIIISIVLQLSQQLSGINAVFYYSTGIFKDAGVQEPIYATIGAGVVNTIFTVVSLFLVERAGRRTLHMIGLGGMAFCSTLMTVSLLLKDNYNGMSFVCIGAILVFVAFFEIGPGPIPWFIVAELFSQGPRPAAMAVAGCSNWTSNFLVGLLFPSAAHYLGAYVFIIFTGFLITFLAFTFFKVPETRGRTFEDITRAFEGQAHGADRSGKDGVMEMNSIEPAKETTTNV

Take `CCOC(=O)Cn1c2c(c3ccccc31)C[C@@H]1C[C@H]2C(OC)CN1C(=O)c1cccnc1SC` (single isomer, unassigned; (+)) [(+)-5a, Glupin]: the IC50 in test [1] is 11.4 ± 1.6 nM; in test [2], 1.5 µM; in test [3] it was 0.433 µM; in test [4], greater than 30 µM; in test [5] it was 0.569 µM; in test [6] it was 0.243 µM. Further, the IC50 in test [7] (pCMV-SPORT6, 2DG uptake) amounted to 19.1 ± 2.9 nM; in test [7] (pTCN, 2DG uptake) it was 19.2 ± 2.1 nM; in test [8] (pCMV-SPORT6-GLUT3), 68 ± 7.2 nM; in test [8] (pTCN-GLUT1), 162 ± 14 nM; in test [8] (pTCN-GLUT2) it was 19.7 ± 2.4 nM; in test [8] (pTCN-GLUT4), 18.9 ± 3.2 nM.
